From publication PMC5129993, “Everolimus induces Met inactivation by disrupting the FKBP12/Met complex” (Oncotarget, 2016)
pIC50: −log10 of the molar value.

Assays:
phospho-p70S6K = assay: Western blot analysis of p70S6K phosphorylation in human cancer cell lines; type: cell-based; settings: 24 hours; for phospho-p70S6K: 786-O and MDA-MB-231 cells; for phosphorylation of p70S6K: 786-O EveR and HCT116 cells, 1 μM (siRNA 50 nM)
Method: (§1) Total protein extracts obtained from cell cultures or tumor specimens were resolved by 4-15% SDS-PAGE and probed with anti-human, polyclonal pMet Y1349, polyclonal Met, monoclonal pp70S6K T412 and p70S6K (Merck-Millipore Darmstadt, Germany), monoclonal actin (Sigma-Aldrich, Milan, Italy), monoclonal FKBP12, polyclonal mTOR, Raptor, and Rictor. Co-immunoprecipitation analyses were performed with anti-Met; membranes were blotted with anti-FKBP12. The total lysate from 786-O, 786-O EveR and HCT116 cells served as positive control. Immunoreactive proteins were visualized by enhanced chemiluminescence (Pierce, Rockford, IL, USA). Densitometry was performed with Image J software (NIH, Bethesda, MD, USA).

phospho-Met = assay: Western blot analysis of Met phosphorylation in human cancer cell lines; type: cell-based; settings: 24 hours; for Met phosphorylation: 0.5 μM; for phosphorylation of Met: 786-O EveR and HCT116 cells, 1 μM (siRNA 50 nM)
Method: as §1

[1] = system: everolimus-resistant HCT116 cells; assay: Subcutaneous murine colorectal cancer model (HCT116 xenograft); settings: for Median survival: subcutaneous HCT116 xenograft, 10 mice/group
Description: We subcutaneously xenografted everolimus-resistant HCT116 cells into 50 four- to six-week-old female BALB/c athymic nu+/nu+ (nude) mice (Charles River Laboratories, Milan, Italy). Forty animals were used to carry out the subcutaneous colorectal cancer model experiment; when tumors reached a mean volume of 1 cm^3, 10 animals were euthanized, tumors were divided into 2-mm-sized pieces and microsurgically implanted in the cecum of 40 Balb/C nude mice for the orthotopic experiment. See Supplementary Methods for further details about the surgical procedure and the treatment schedule. […]

T47D cells with wt Met = assay: Cell density assay (MTT), Met-transduced T47D; type: cell-based, human
Method: (§2) The percentage of cell density was determined using the 3-(4,5-dimethylthiazol-2-yl)-2,5-diphenyltetrazolium bromide (MTT) assay according to the manufacturer's instructions (Sigma-Aldrich, Milan, Italy). […]
(§3) (iii) an active conformation. The resulting selected Met [Follenzi A, Nat Genet. 2000]. […]
(§4) We used the pRRL.sin.PPT.hCMV.GFP.
(§5) Cα] at the 80 loop level (frame 13). To generate the Met/pre vector as control. […]

[2] = system: T47D cells with Met Y1235D mutant; assay: Cell density assay (MTT), Met-transduced T47D; type: cell-based, human
Method: as §2, §3, §4, §5

[3] = system: T47D cells with Met M1268T mutant; assay: Cell density assay (MTT), Met-transduced T47D; type: cell-based, human
Method: as §2, §3, §4, §5

[4] = system: everolimus-resistant HCT116 cells; assay: Orthotopic murine colorectal cancer model (HCT116 in cecum); type: in vivo, Balb/C nude mice; settings: orthotopic HCT116, four weeks after tumor implantation
Method: The cecum was then placed
Seven days after implantation, […]
p/6 x larger diameter x (smaller diameter)2. […]
diameter was assessed with ultrasonography (VEVO,
Committee. Primary tumors in the cecum were excised
The final tumor was measured with a caliper surgical site was isolated in a sterile fashion.
J Am Chem Soc. 2003; 125: 8827-8837.
Uncoupling signal transducers from oncogenic MET 6.
2. […] 2000; 25: 217-222.
Unbinding pathways from the glucocorticoid receptor shed 7. Michnick SW, Rosen MK, Wandless TJ, Karplus M, […]
Solution structure of FKBP, a rotamase a naturally occurring, clinically relevant mutant receptor. J enzyme and receptor for FK506 and rapamycin. Science.
3. […] Mustafi SM, LeMaster DM, Hernández G. Differential […]
cytoreductive antitumor activity in vivo.
HADDOCK2.0 on the CAPRI targets. Proteins.
726-733. JR, Soisson SM, Lumb KJ. Structural basis for selective

Met Y1230A = target: T1, Met Y1230A (Homo sapiens, UniProt P08581, Y1230A); assay: In vitro Met kinase inhibition assay (ProQinase, radiometric 33PanQinase); type: biochemical
T1 construct: purchased ProQinase GmbH (screening service)
Method: (§6) In vitro Met kinase inhibition assay equilibrated using NAMD2.8 [Phillips JC, J Comput Chem.
(§7) The Met kinase inhibition by everolimus was analyzed 2005], and the final MD simulation was conducted applying […]
(§8) ProQinase (ProQinase GmbH, Freiburg, Germany). Briefly, J Med Chem. 2013].
(§9) -10 - trajectories. The complex was aligned on the Cα atoms of different concentrations (standard range: 3x10M–1x10 Met, while the backbone atoms Root-mean-square deviation 5M; semilog dilutions) against human recombinant wt
(§10) Met and nine Met mutant protein kinases, and IC values (RMSD) of FKBP12 was measured and used to cluster the 50 trajectories. The cluster analysis was performed using ptraj […]
(§11) All assays were Å. Finally, the representative structure of the most populated performed at the corresponding apparent ATP Km of each cluster was choosen as the final Met/FKBP12 complex. […]

Met Y1230D = target: T2, Met Y1230D (Homo sapiens, UniProt P08581, Y1230D); assay: as above; type: biochemical
T2 construct: purchased ProQinase GmbH (screening service)
Method: as §6, §7, §8, §9, §10, §11

Met M1250T = target: T3, Met M1250T (Homo sapiens, UniProt P08581, M1250T); assay: as above; type: biochemical
T3 construct: purchased ProQinase GmbH (screening service)
Method: as §6, §7, §8, §9, §10, §11

Met Y1230H = target: T4, Met Y1230H (Homo sapiens, UniProt P08581, Y1230H); assay: as above; type: biochemical
T4 construct: purchased ProQinase GmbH (screening service)
Method: as §6, §7, §8, §9, §10, §11

Met F1200I = target: T5, Met F1200I (Homo sapiens, UniProt P08581, F1200I); assay: as above; type: biochemical
T5 construct: purchased ProQinase GmbH (screening service)
T5 sequence (P08581 25-1390 F1200I): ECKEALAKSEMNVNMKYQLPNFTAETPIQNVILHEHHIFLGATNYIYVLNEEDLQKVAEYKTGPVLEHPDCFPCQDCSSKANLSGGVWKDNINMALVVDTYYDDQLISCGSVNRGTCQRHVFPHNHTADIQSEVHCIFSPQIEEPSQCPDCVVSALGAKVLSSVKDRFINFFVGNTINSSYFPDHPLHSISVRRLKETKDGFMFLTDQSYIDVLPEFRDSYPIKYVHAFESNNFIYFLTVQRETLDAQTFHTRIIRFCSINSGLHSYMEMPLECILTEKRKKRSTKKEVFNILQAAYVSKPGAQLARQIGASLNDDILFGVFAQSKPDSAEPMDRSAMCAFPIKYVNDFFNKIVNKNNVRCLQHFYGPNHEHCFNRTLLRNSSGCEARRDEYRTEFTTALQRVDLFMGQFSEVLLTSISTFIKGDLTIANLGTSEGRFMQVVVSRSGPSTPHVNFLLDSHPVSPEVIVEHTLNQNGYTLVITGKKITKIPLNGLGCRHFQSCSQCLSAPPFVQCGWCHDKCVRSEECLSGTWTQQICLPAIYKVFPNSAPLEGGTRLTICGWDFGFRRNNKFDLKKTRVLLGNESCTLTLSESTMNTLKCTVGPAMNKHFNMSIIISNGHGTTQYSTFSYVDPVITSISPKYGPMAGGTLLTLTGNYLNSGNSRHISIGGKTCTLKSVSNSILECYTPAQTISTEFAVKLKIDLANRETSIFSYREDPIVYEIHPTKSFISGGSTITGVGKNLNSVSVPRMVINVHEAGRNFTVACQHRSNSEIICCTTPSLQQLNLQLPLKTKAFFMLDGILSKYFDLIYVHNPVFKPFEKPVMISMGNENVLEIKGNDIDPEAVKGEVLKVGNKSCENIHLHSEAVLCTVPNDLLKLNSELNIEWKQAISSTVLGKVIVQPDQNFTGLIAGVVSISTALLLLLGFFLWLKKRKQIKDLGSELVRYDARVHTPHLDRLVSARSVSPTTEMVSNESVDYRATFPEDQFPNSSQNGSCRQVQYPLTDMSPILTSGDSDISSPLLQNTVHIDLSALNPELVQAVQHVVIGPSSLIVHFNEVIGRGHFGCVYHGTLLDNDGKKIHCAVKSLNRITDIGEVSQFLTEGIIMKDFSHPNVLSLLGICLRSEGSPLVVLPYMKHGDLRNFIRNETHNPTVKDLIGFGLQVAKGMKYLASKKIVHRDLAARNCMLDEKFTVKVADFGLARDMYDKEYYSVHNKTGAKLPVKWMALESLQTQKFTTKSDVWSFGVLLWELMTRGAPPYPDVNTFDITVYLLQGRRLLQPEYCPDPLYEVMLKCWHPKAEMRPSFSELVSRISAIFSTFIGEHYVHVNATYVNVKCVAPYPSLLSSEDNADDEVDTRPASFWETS
Method: as §6, §7, §8, §9, §10, §11

Met D1228H = target: T6, Met D1228H (Homo sapiens, UniProt P08581, D1228H); assay: as above; type: biochemical
T6 construct: purchased ProQinase GmbH (screening service)
T6 sequence (P08581 25-1390 D1228H): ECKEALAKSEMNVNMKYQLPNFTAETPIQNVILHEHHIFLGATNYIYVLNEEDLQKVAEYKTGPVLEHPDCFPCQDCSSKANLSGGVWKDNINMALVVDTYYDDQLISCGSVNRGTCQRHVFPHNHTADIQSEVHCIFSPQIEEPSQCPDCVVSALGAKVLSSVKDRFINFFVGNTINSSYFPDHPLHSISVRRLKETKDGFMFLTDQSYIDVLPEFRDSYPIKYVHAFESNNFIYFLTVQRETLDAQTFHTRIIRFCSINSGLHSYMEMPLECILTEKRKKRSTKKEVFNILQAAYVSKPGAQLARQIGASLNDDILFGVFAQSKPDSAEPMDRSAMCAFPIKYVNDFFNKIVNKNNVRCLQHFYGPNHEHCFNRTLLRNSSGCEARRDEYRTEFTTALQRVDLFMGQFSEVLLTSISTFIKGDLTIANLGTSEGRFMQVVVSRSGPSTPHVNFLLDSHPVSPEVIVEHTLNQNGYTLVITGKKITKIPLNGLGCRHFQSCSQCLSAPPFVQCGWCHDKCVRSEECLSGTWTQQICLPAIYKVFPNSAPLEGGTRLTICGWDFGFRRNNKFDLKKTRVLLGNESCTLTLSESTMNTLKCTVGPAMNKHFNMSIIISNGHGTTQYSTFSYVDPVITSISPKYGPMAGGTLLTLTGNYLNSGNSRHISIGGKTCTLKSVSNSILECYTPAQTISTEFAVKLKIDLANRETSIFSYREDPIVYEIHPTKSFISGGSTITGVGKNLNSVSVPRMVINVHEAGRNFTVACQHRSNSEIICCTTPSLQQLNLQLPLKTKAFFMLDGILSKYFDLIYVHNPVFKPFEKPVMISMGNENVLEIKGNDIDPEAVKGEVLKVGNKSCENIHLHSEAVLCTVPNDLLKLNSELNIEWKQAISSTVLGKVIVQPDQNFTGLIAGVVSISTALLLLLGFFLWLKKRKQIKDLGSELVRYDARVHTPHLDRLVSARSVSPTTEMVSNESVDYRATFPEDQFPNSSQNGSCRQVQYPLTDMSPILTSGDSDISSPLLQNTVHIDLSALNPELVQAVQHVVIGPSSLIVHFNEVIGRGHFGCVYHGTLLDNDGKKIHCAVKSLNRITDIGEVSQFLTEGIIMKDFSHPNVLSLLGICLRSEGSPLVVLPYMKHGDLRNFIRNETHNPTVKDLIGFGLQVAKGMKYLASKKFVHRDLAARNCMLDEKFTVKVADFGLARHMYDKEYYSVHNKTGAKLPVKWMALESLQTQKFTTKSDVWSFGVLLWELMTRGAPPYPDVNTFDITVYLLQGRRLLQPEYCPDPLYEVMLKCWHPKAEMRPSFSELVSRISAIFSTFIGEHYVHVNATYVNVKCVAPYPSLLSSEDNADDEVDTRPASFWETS
Method: as §6, §7, §8, §9, §10, §11

PC-9 cells = assay: Cell density assay (MTT); type: cell-based; settings: Homo sapiens, PC-9, 72 hours, read-out: concentration causing 50% reduction of cell density
Method: (§12) The percentage of cell density was determined using the 3-(4,5-dimethylthiazol-2-yl)-2,5-diphenyltetrazolium bromide (MTT) assay according to the manufacturer's instructions (Sigma-Aldrich, Milan, Italy).

MDA-MB-231 cells = assay: Cell density assay (MTT); type: cell-based; settings: Homo sapiens, MDA-MB-231, 72 hours, read-out: concentration causing 50% reduction of cell density
Method: as §12

786-O cells = assay: Cell density assay (MTT); type: cell-based; settings: Homo sapiens, 786-0, 72 hours, read-out: concentration causing 50% reduction of cell density
Method: as §12

HCT116 cells = assay: Cell density assay (MTT); type: cell-based; settings: Homo sapiens, HCT-116; HCT116, data not shown; read-out: concentration causing 50% reduction of cell density
Method: as §12

ACHN cells = assay: Cell density assay (MTT); type: cell-based; settings: Homo sapiens, 72 hours, read-out: concentration causing 50% reduction of cell density
Method: as §12

MDA-MB-361 cells = assay: Cell density assay (MTT); type: cell-based; settings: Homo sapiens, MDA-MB-361, 72 hours, read-out: concentration causing 50% reduction of cell density
Method: as §12

NCI-H1975 cells = assay: Cell density assay (MTT); type: cell-based; settings: Homo sapiens, NCI-H1975, 72 hours, read-out: concentration causing 50% reduction of cell density
Method: as §12

[5] = system: 786-O EveR (everolimus-resistant) cells; assay: Cell density assay (MTT); type: cell-based; settings: Homo sapiens, 786-0, data not shown, read-out: concentration causing 50% reduction of cell density
Method: as §2

Met D1228N = target: T7, Met D1228N (Homo sapiens, UniProt P08581, D1228N); assay: In vitro Met kinase inhibition assay (ProQinase, radiometric 33PanQinase); type: biochemical
T7 construct: purchased ProQinase GmbH (screening service)
Method: as §6, §7, §8
(§13) -10 - trajectories. The complex was aligned on the Cα atoms of different concentrations (standard range: 3x10M–1x10 Met, while the backbone atoms Root-mean-square deviation 5M; semilog dilutions) against human recombinant wt […]
as §11

Met Wild-type = target: T8, Met Wild-type (Homo sapiens, UniProt P08581); assay: as above; type: biochemical; settings: Met TK Wild-type; 0.3 nM to 10 μM, singlicate; apparent ATP Km
T8 construct: purchased ProQinase GmbH (screening service)
T8 sequence (P08581 25-1390): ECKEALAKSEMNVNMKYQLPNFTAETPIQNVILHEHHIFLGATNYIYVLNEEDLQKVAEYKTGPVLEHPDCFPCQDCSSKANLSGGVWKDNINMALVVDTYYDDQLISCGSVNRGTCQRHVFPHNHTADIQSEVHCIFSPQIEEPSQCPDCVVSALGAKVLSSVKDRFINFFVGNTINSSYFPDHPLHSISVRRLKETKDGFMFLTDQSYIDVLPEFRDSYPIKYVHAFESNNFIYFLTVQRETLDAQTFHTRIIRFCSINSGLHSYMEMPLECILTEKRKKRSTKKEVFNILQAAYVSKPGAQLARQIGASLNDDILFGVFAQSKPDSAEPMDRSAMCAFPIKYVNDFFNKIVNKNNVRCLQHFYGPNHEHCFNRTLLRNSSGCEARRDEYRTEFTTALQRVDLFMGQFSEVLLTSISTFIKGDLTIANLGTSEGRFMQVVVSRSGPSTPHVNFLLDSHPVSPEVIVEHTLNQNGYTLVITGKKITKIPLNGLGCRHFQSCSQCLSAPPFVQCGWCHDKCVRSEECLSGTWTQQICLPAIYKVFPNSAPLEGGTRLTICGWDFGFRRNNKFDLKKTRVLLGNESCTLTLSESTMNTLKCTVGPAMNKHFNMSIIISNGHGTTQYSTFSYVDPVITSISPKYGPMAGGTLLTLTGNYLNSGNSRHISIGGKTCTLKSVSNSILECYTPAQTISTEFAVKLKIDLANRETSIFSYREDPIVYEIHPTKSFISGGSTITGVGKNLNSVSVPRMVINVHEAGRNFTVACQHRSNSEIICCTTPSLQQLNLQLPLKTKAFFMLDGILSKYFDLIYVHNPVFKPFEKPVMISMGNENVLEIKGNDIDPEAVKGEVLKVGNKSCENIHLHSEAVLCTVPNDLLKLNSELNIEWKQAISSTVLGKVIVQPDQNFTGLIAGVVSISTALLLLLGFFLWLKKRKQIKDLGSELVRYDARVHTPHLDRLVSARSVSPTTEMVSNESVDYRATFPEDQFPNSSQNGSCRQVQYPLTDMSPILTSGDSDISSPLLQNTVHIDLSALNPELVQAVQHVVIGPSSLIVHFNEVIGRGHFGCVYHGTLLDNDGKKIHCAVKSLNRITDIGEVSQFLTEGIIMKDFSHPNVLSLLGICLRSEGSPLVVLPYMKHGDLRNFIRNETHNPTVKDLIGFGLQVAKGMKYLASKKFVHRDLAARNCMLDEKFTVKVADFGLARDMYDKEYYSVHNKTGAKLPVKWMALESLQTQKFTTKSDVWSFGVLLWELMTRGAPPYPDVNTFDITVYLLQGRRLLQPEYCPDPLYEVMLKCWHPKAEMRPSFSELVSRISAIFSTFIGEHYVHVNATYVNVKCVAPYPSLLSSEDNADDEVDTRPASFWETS
Method: as §6, §7, §8, §13, §11

Met Y1230C = target: T9, Met Y1230C (Homo sapiens, UniProt P08581, Y1230C); assay: as above; type: biochemical
T9 construct: purchased ProQinase GmbH (screening service)
Method: as §6, §7, §8, §13, §11

FKBP12/Met complex = target: T10, FKBP12/Met complex (Homo sapiens, UniProt P62942); assay: Co-immunoprecipitation of FKBP12 with anti-Met antibody; type: cell-based; settings: 0.5 μM, 24 hours
T10 construct: immunoprecipitated total cell lysates from everolimus-treated and -untreated 786-O cells; endogenous in cells; host or cells: 786-O (also 786-O EveR and HCT116)
T10 sequence (P62942 2-108 limits assumed, one chain of several): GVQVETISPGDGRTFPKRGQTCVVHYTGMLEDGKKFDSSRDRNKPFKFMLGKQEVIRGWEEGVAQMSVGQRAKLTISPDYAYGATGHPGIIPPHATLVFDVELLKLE
Method: as §1

[6] = day 42, 6 weeks after cell injection, everolimus 5 mg/kg per os, PHA665752 20 mg/kg i.v., five times a week for 2 weeks

SMILES: COc1cccc2cc(-c3nc([C@H]4CC[C@H](C(=O)O)CC4)n4ncnc(N)c34)[nH]c12 [OSI-027]
- phospho-p70S6K (phospho-p70S6K; 0.5 μM): reduced phospho-p70S6K
- Met phosphorylation (phospho-Met; 786-O and MDA-MB-231 cells): neither PKI-587 nor OSI-027 inhibited Met phosphorylation

SMILES: Cc1[nH]c(/C=C2\C(=O)Nc3ccc(S(=O)(=O)Cc4c(Cl)cccc4Cl)cc32)c(C)c1C(=O)N1CCC[C@@H]1CN1CCCC1 [PHA665752]
- phosphorylation of p70S6K (phospho-p70S6K): reduced the phosphorylation of Met and p70S6K
- tumor growth inhibition [1, 6]: 85%
- tumor growth inhibition ([1]; end of the experiment, same regimen): 30%
- Median survival [1]: 57 days
- phosphorylation of Met (phospho-Met): reduced the phosphorylation of Met and p70S6K
- sensitivity to everolimus (cell density) (T47D cells with wt Met; T47D wt Met, PHA665752 1 μM + everolimus 1 μM, 72 hours, P <0.01): significantly restored sensitivity to everolimus
- sensitivity to everolimus (cell density) ([2]; T47D Met Y1235D, PHA665752 1 μM + everolimus 1 μM, 72 hours, P <0.01): significantly restored sensitivity to everolimus
- sensitivity to everolimus (cell density) ([3]; T47D Met M1268T, PHA665752 1 μM + everolimus 1 μM, 72 hours, P <0.01): significantly restored sensitivity to everolimus
- tumor volume [4]: greatly reduced
- tumor weight [4]: greatly reduced

SMILES: CO[C@H]1C[C@@H]2CC[C@@H](C)[C@@](O)(O2)C(=O)C(=O)N2CCCC[C@H]2C(=O)O[C@H]([C@H](C)C[C@@H]2CC[C@@H](OCCO)[C@H](OC)C2)CC(=O)[C@H](C)/C=C(\C)[C@@H](O)[C@@H](OC)C(=O)[C@H](C)C[C@H](C)/C=C/C=C/C=C/1C [everolimus]
- phosphorylation of p70S6K (phospho-p70S6K): did not affect the phosphorylation of Met or p70S6K
- p70S6K phosphorylation (phospho-p70S6K; renal, breast and lung everolimus-sensitive cell lines, 0.5 μM): decreased p70S6K phosphorylation
- tumor growth inhibition [1, 6]: 35%
- Median survival [1]: 37.5 days
- pIC50 (Met Y1230A): < 5.00
- pIC50 (Met Y1230D): < 5.00
- pIC50 (Met M1250T): < 5.00
- pIC50 (Met Y1230H): < 5.00
- pIC50 (Met F1200I): < 5.00
- pIC50 (Met D1228H): < 5.00
- pIC50 (PC-9 cells): ≥ 6.30
- pIC50 (MDA-MB-231 cells): ≥ 6.30
- pIC50 (786-O cells): ≥ 6.30
- pIC50 (HCT116 cells): ≤ 5.30
- pIC50 (ACHN cells): ≥ 6.30
- pIC50 (MDA-MB-361 cells): ≥ 6.30
- pIC50 (NCI-H1975 cells): ≥ 6.30
- pIC50 [5]: ≤ 5.30
- pIC50 (Met D1228N): < 5.00
- pIC50 (Met Wild-type): < 5.00
- pIC50 (Met Y1230C): < 5.00
- amount of FKBP12 co-immunoprecipitated with Met (FKBP12/Met complex; 786-O cells): lower
- amount of FKBP12 co-immunoprecipitated with Met (FKBP12/Met complex; everolimus-resistant 786-O EveR and HCT116 cells): not reduced
- phosphorylation of Met (phospho-Met): did not affect the phosphorylation of Met or p70S6K
- Met phosphorylation (phospho-Met; renal, breast and lung everolimus-sensitive cell lines): inhibition of Met phosphorylation
- pIC50 (T47D cells with wt Met; Homo sapiens, T47D with wt Met, read-out: drug concentration causing 50% reduction of cell density): < 6.30
- pIC50 ([2]; Homo sapiens, T47D with Met Y1235D, read-out: drug concentration causing 50% reduction of cell density): < 6.30
- pIC50 ([3]; Homo sapiens, T47D with Met M1268T, read-out: drug concentration causing 50% reduction of cell density): < 6.30
- tumor volume [4]: large tumors in the cecum and peritoneum

SMILES: CN(C)C1CCN(C(=O)c2ccc(NC(=O)Nc3ccc(-c4nc(N5CCOCC5)nc(N5CCOCC5)n4)cc3)cc2)CC1 [PKI-587]
- phospho-p70S6K (phospho-p70S6K; 0.5 μM): reduced phospho-p70S6K
- Met phosphorylation (phospho-Met; 786-O and MDA-MB-231 cells): neither PKI-587 nor OSI-027 inhibited Met phosphorylation
